Entries after “also recorded” stand apart in the source; their conditions may differ.
What was measured:
[1] = Study LYT-100-2021-103 Part 3 (Example 2): PK of LYT-100 550 mg TID then 824 mg TID; type: in vivo, human
Method: Subjects provided blood samples prior to treatment, i.e., Day −1 or Day 1, for the determination of CYP1A2, CYP2C9, CYP2C19, and CYP2D6 genotype to support exploratory PK analyses. Subjects were required to provide consent for genotyping. Blood samples for PK were collected at specified times, as follows: • Day 1:0 (pre-AM dose) • Day 2: no sampling • Day 3:0 (pre-AM dose), and 1, 2, 3, 4, 6 (pre-mid-day dose), 7, 8, 9, 10, 12 (pre-PM dose), 13, 14, 15, 16, and 17 hours post-AM dose • Day 4:0 (pre-AM dose) • Day 5: no sampling • Day 6:0 (pre-AM dose), and 1, 2, 3, 4, 6 (pre-mid-day dose), 7, 8, 9, 10, 12 (pre-PM dose), 13, 14, 15, 16, and 17 hours post-AM dose • Day 7:0 (same time as Day 6 pre-AM dose, discharge)
Data was obtained for thirty subjects. Eight subjects had all values reported as below level of quantitation (BLQ; assumed to be 6 placebo subjects plus 2 active subjects with Day 1 pre-dose samples only). One additional subject was excluded due to a large number of BLQ samples on both Days 3-4 and 6-7. Accordingly, twenty-one subjects had sufficient PK data available to calculate PK parameters at the lower dose (550 mg TID on Days 3-4). Three subjects only had data for Days 3-4, and therefore had missing PK parameters for the higher dose (824 mg TID on Days 6-7).

[2] = molecular target: T1, CYP1A2 (Homo sapiens, UniProt P05177); experiment: In vitro stability with recombinant human CYP1A2; type: in vitro ADME; settings: recombinant human isozyme; read-out: t1/2 following incubation with CYP1A2 (converted)
T1 construct: host or cells: heterologous cell systems (not specified)
T1 sequence (P05177 1-516): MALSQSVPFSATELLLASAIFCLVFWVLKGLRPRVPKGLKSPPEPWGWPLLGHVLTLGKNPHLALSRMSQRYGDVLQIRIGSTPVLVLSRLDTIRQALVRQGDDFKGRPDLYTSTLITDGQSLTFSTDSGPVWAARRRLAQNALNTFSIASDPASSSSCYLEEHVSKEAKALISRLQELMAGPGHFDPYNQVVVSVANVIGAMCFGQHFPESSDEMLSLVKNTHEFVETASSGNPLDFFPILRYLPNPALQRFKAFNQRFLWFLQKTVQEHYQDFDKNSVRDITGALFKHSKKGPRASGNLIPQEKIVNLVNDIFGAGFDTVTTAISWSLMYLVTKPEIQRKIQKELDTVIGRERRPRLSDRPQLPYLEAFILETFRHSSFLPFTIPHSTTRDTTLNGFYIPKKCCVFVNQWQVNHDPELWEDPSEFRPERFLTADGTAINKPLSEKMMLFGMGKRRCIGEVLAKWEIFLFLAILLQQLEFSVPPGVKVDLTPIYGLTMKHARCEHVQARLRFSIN
Method: (§1) The half-life (t½) of each test article was determined.

[3] = system: patients with COVID-19 respiratory disease; experiment: Phase 2 trial of LYT-100 in post-acute COVID-19 respiratory disease: tolerability; type: in vivo, human; settings: COVID-19 study
Method: An initial dosage of 500 mg BID was given the first 3 days of dosing, followed by 750 mg BID thereafter.

[4] = clinical; settings: both sexes, human, in vivo, 550 mg
Method: Over-encapsulation was utilized to maintain study blind. […] Approximately 50 older healthy female and male adult subjects (1:1 ratio) were randomized into 1 of 2 cohorts:Cohort 1 or Cohort 2, N=˜25 subjects per cohort.
There was a single AM fasting dose on Day 4 for both drugs. There was a 6-day wash-out period between drug cross-over.
Subjects were discharged on Day 4 following successful completion of all assessments and at the Investigator's discretion.
Subjects were then administered a single dose of their randomized treatment on the morning of Day 14 following an overnight fast of at least 8 hours. Subjects were discharged on Day 14 following successful completion of all assessments and at the Investigator's discretion.
An evening snack was served ≥3 hours following evening study medication administration. On Day 4 (Treatment Period 1) and Day 14 (Treatment Period 2), subjects were administered their assigned study drug once in the morning following an overnight fast of at least 8 hours (with approximately 240 mL of non-carbonated water). No additional fluids were allowed during the 1 hour pre- and post-dose.
Blood samples for PK were collected for Cohorts 1 and 2 at specified times during both periods, as follows: • Days 1 & 11:0 (pre-morning dose) • Days 2 & 12: no sampling. • Days 3 & 13:0 (pre-morning dose), and 1, 2, 3, 4, 6 (pre-mid-day dose), 7, 8, 9, 10, 12 (pre-evening dose), 13, 14, 15, 16, and 17 hours post-morning dose • Days 4 & 14:0 (pre-morning dose), and 1, 2, 3, 4, 6 (post-dose),

[5] = system: rat BLM induced lung fibrosis model; experiment: Rat bleomycin induced lung fibrosis model, Phase II (efficacy); settings: bleomycin rats, LYT-100 400 mg/kg QD / nintedanib 60 mg/kg BID
Method: For Groups 4, 5, 6, and 7, bleomycin and vehicle dosing were conducted as indicated in Table 28 (0.45 mg/kg, at 1696 IU/mg of Bleomycin or saline on Day 1, 2, 3, 6 and 7).

[6] = molecular target: T2, CYP2C19 (Homo sapiens, UniProt P33261); experiment: In vitro stability with recombinant human CYP2C19; type: in vitro ADME; settings: recombinant human isozyme; read-out: t1/2 following incubation with CYP2C19 (converted)
T2 construct: host or cells: heterologous cell systems (not specified)
T2 sequence (P33261 whole entry): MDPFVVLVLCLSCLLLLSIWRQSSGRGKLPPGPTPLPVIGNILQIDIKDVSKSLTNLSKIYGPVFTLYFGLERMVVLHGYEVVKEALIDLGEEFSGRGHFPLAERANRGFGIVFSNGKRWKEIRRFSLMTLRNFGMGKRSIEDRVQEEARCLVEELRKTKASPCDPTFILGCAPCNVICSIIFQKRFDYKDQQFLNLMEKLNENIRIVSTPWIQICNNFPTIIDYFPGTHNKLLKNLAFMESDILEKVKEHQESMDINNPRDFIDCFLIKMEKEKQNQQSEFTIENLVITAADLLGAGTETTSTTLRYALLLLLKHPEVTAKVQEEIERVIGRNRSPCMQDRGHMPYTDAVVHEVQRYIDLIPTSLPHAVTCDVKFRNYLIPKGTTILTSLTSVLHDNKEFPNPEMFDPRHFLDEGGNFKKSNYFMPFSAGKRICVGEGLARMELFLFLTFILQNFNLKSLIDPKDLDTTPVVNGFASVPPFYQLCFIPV
Method: as §1

[7] = LYT-100 500 mg BID 3 days then 750 mg BID

With [2H]C([2H])([2H])c1ccc(=O)n(-c2ccccc2)c1 [LYT-100, 5-(methyl-d3)-1-phenylpyridin-2-(1H)-one] the “Cmax, PK Parent” value ([1]; Healthy Older Part 3, LYT-100 824 mg TID, fed, N=13, mean (SD)) was 13.7 (5.1) mcg/mL, the “AUC, % higher compared to historic pirfenidone PK values” ([1]; LYT-100 824 mg TID) was “approximately 25%” and the “exposure equivalent, % of 801 TID pirfenidone” value ([1]; LYT-100 825 mg TID) was 120-150%. The “Cmax, % higher than with pirfenidone” value ([1]; Part 3, LYT-100 824 mg TID) was 17%, the half-life [2] was 9.08 h and the “drug-related serious adverse events or deaths” value [3] was “no drug-related serious adverse events (SAEs) or deaths”. The “discontinuation rate due to AEs at least possibly related” value [3, 7] was 8.6%, the “dizziness, AE at least possibly related, incidence” value [3, 7] was 3.3% and the “fatigue, AE at least possibly related, incidence” value [3, 7] was 2.2%. The “headache, AE at least possibly related, incidence” value [3, 7] was 4.3%, the “nausea, AE at least possibly related, incidence” value [3, 7] was 8.7% and the “rash, AE at least possibly related, incidence” value [3, 7] was 3.3%. For the same molecule, the “Dyspepsia, treatment emergent AE, events” value ([3]; LYT-100 750 mg BID) was 6 Events, the “Dyspepsia, treatment emergent AE, subjects” value ([3]; LYT-100 750 mg BID) was 6 (6.5) N (%) and the “Headache, treatment emergent AE, events” value ([3]; LYT-100 750 mg BID) was 5 Events. The “Headache, treatment emergent AE, subjects” value ([3]; LYT-100 750 mg BID) was 5 (5.4) N (%), the “Increase in Fibrin D Dimer, treatment emergent AE, events” value ([3]; LYT-100 750 mg BID) was 6 Events and the “Increase in Fibrin D Dimer, treatment emergent AE, subjects” value ([3]; LYT-100 750 mg BID) was 5 (5.4) N (%). The “Nasopharyngitis, treatment emergent AE, events” value ([3]; LYT-100 750 mg BID) was 7 Events, the “Nasopharyngitis, treatment emergent AE, subjects” value ([3]; LYT-100 750 mg BID) was 6 (6.5) N (%) and the “Nausea, treatment emergent AE, events” value ([3]; LYT-100 750 mg BID) was 10 Events. For the same molecule, the “Nausea, treatment emergent AE, subjects” value ([3]; LYT-100 750 mg BID) was 8 (8.7) N (%), the “Upper abdominal pain, treatment emergent AE, events” value ([3]; LYT-100 750 mg BID) was 6 Events and the “Upper abdominal pain, treatment emergent AE, subjects” value ([3]; LYT-100 750 mg BID) was 5 (5.4) N (%). For the same molecule, the AUC(0-t) ([4]; AUC0-24, parent) was 34100 ng·h/mL, the Cmax ([4]; Cmax, parent) was 9170 ng/mL and the “hydroxyproline content (μg per mg of wet lung) vs bleomycin/vehicle” value ([5]; Day 8-27) was “reduced the hydroxyproline content; also recorded: reduced lung hydroxyproline content”. For the same molecule, the “lung fibrosis scores (histopathology) vs bleomycin/vehicle” value ([5]; Day 8-27) was “did not affect the fibrosis scores”, the “lung sections with fibrosis Score 1” value ([5]; Day 8-27) was 33% and the “lung sections with fibrosis Score 2” value ([5]; Day 8-27) was 36%. The “mean lung weight vs bleomycin/vehicle” value ([5]; Day 8-27) was “did not affect mean lung weight”, the “median lung fibrosis scores vs bleomycin/vehicle” value ([5]; Day 8-27) was “reduced median fibrosis scores” and the “total left lung hydroxyproline (μg per left lung) vs bleomycin/vehicle” value ([5]; Day 8-27) was “did not affect total hydroxyproline levels”. The body weight gain ([5]; oral gavage Day 8-27) was “resumed and at a rate similar to Group 4; also recorded: did not negatively affect body weight developments” and the half-life [6] was 3.67 h.

Source: patent US12622899B2 (PureTech LYT 100, Inc., priority 2018, dated 2026)
